Data from ChEMBL document CHEMBL4477255, “Charting the chemical space around the (iso)indoline scaffold, a comprehensive approach towards multitarget directed ligands” (Bioorg Med Chem Lett, 2016).

What was measured:
Assay type in all cases: cell-based
[1] = biological target: T1, 5-hydroxytryptamine receptor 6 (Homo sapiens, UniProt P50406); assay: Displacement of [3H]LSD from human recombinant 5-HT6 receptor expressed in CHO-K1 cells incubated for 3 hrs by scintillation counting analysis
D(3) dopamine receptor [2] = biological target: T2, D(3) dopamine receptor (Homo sapiens, UniProt P35462); assay: Displacement of [3H]raclopride from human recombinant dopamine D3 receptor expressed in CHO-K1 cells at 1 uM incubated for 120 mins by liquid scintillation counting analysis
T2 sequence (P35462 whole entry): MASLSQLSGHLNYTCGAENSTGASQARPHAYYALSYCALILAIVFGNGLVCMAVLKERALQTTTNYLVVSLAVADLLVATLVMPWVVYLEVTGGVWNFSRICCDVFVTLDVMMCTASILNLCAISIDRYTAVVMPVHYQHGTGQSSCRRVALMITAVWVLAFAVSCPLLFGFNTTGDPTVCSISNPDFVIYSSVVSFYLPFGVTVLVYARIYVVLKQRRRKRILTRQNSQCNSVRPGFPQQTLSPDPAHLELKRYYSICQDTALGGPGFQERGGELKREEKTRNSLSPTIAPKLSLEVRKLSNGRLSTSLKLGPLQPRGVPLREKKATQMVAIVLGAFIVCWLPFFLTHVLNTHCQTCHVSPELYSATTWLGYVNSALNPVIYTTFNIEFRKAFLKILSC

Homo sapiens [3] = species on record: Homo sapiens; assay: Selectivity index, ratio of Ki for human recombinant histamine H3 receptor expressed in CHO-K1 cells to Ki for human recombinant 5-HT6 receptor expressed in CHO-K1 cells
[4] = biological target: T1, 5-hydroxytryptamine receptor 6; assay: Displacement of [3H]LSD from human recombinant 5-HT6 receptor expressed in CHO-K1 cells at 1 uM incubated for 3 hrs by scintillation counting analysis
D(2) dopamine receptor [5] = biological target: T3, D(2) dopamine receptor (Homo sapiens, UniProt P14416); assay: Displacement of [3H]raclopride from human recombinant dopamine D2 long receptor expressed in CHO-K1 cells at 1 uM incubated for 120 mins by scintillation counting analysis
T3 sequence (P14416 whole entry): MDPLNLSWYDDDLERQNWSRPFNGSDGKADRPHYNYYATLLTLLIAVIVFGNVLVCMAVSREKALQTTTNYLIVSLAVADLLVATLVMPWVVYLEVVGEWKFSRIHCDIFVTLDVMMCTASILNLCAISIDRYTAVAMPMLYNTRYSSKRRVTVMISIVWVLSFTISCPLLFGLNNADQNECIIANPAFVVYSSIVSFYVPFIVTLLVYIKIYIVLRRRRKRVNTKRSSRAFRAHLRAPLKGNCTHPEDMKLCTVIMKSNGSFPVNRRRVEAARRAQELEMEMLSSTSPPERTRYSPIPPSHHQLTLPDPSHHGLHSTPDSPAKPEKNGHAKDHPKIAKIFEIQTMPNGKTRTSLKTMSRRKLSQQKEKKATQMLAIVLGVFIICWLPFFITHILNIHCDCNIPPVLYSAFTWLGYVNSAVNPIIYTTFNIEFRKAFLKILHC

Homo sapiens [6] = species on record: Homo sapiens; assay: Selectivity index, ratio of Ki for human recombinant dopamine D3 receptor expressed in CHO-K1 cells to Ki for human recombinant 5-HT6 receptor expressed in CHO-K1 cells
Homo sapiens [7] = species on record: Homo sapiens; assay: Selectivity index, ratio of Ki for human recombinant dopamine D2 long receptor expressed in CHO-K1 cells to Ki for human recombinant 5-HT6 receptor expressed in CHO-K1 cells
Histamine H3 receptor [8] = biological target: T4, Histamine H3 receptor (Homo sapiens, UniProt Q9Y5N1); assay: Displacement of N-alpha-[methyl-3H]methylhistamine dihydrochloride from human recombinant histamine H3 receptor expressed in CHO-K1 cells at 1 uM incubated for 30 mins by liquid scintillation counting analysis
T4 sequence (Q9Y5N1 whole entry): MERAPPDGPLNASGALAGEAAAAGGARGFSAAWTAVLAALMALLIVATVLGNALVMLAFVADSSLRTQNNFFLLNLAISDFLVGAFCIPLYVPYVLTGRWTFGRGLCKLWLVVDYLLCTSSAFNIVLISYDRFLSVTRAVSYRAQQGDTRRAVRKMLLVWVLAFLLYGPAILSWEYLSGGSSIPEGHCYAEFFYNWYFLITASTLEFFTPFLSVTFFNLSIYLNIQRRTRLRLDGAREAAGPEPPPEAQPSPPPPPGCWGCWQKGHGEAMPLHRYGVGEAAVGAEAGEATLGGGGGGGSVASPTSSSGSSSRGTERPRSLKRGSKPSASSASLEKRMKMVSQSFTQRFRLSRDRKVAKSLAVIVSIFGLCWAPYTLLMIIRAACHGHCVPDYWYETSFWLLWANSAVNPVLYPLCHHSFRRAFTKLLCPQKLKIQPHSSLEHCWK

Histamine H3 receptor [9] = biological target: T4, Histamine H3 receptor; assay: Displacement of N-alpha-[methyl-3H]methylhistamine dihydrochloride from human recombinant histamine H3 receptor expressed in CHO-K1 cells incubated for 30 mins by liquid scintillation counting analysis
D(2) dopamine receptor [10] = biological target: T3, D(2) dopamine receptor; assay: Displacement of [3H]raclopride from human recombinant dopamine D2 long receptor expressed in CHO-K1 cells incubated for 120 mins by scintillation counting analysis
D(3) dopamine receptor [11] = biological target: T2, D(3) dopamine receptor; assay: Displacement of [3H]raclopride from human recombinant dopamine D3 receptor expressed in CHO-K1 cells incubated for 120 mins by liquid scintillation counting analysis
Homo sapiens [12] = species on record: Homo sapiens; assay: Selectivity index, ratio of Ki for human recombinant dopamine D3 receptor expressed in CHO-K1 cells to Ki for dopamine D2 long receptor expressed in CHO-K1 cells

T1 sequence (P50406 whole entry): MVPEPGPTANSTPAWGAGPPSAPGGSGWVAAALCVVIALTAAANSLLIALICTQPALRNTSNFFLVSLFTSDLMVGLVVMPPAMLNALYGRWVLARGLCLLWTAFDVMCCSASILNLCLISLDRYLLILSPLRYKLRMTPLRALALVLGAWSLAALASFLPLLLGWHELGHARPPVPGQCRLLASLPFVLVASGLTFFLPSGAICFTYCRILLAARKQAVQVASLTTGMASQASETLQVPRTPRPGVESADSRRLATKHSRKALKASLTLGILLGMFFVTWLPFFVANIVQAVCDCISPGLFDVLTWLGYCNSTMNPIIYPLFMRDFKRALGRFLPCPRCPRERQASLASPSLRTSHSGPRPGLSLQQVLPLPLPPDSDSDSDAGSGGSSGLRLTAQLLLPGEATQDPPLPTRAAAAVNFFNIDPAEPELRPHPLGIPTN

| Ki [1] [nM] | inhibition (D(3) dopamine receptor [2]) [%] | inhibition [4] [%] | inhibition (D(2) dopamine receptor [5]) [%] | inhibition (Histamine H3 receptor [8]) [%] | Ki (Histamine H3 receptor [9]) [nM] | Ki (D(2) dopamine receptor [10]) [nM] | Ki (D(3) dopamine receptor [11]) [nM] | SMILES | Ratio Ki (Homo sapiens [3]) | Ratio Ki (Homo sapiens [6]) | Ratio Ki (Homo sapiens [7]) | Ratio Ki (Homo sapiens [12]) |
| --- | --- | --- | --- | --- | --- | --- | --- | --- | --- | --- | --- | --- |
| 9 | 14 | 94 | 14 | 14 |  |  |  | CN1CCC(c2cccc3c2CN(S(=O)(=O)c2ccccc2)C3)CC1 | > 100 | > 100 | > 100 |  |
| 31 | 91 | 89 | 80 | 50 | 344 | 84 | 72 | CCN1CCN(c2cccc3c2CCN3S(=O)(=O)c2ccccc2)CC1 |  |  |  | 1.5 |
| 266 | 60 | 51 | 60 | 59 | 580 | 355 | 449 | O=S(=O)(c1ccccc1)N1CCc2c(N3CCN(C4CCC4)CC3)cccc21 |  |  |  |  |
| 170 | 58 | 59 | 25 | 50 | 317 |  | 591 | CCN1CCC(c2cccc3c2CCN3S(=O)(=O)c2ccccc2)CC1 |  |  |  |  |
| 128 | 48 | 86 | 14 | 59 | 299 |  | 401 | CN1CCC(c2ccc3c(c2)CCN3S(=O)(=O)c2ccccc2)CC1 |  |  |  |  |
| 0.43 | 16 | 101 | 17 | 4 |  |  |  | O=S(=O)(c1ccccc1)N1Cc2cccc(C3CCNCC3)c2C1 | > 100 | > 100 | > 100 |  |
| 129 | 94 | 53 | 50 | 65 | 280 | 438 | 48 | CCN1CCN(c2ccc3c(c2)CCN3S(=O)(=O)c2ccccc2)CC1 |  |  |  |  |
|  | 9 | 1 | 48 | 82 | 214 | 1040 |  | O=S(=O)(c1ccccc1)N1CCc2c(C3CCN(C4CCC4)CC3)cccc21 |  |  |  |  |
|  | 61 | -7 | 22 | 60 | 294 |  | 688 | CCN1CCN(c2ccc3c(c2)CN(S(=O)(=O)c2ccccc2)C3)CC1 |  |  |  |  |
